Test results published in US11035003B2, “TRPC6 involved in glomerulonephritis” (Duke University, priority 2005, dated 2021).
Changes are numbered by the printed parent chain.

How the values were obtained:
TRPC6^P112Q = molecular target: T1, TRPC6^P112Q (Homo sapiens, UniProt Q9Y210, P112Q); assay: Fura-2 single cell imaging of divalent cations in HEK 293 cells transfected with TRPC6^P112Q; assay type: cell-based
T1 construct: expressed in transfected cells; host or cells: HEK 293
T1 sequence (Q9Y210 1-931 P112Q): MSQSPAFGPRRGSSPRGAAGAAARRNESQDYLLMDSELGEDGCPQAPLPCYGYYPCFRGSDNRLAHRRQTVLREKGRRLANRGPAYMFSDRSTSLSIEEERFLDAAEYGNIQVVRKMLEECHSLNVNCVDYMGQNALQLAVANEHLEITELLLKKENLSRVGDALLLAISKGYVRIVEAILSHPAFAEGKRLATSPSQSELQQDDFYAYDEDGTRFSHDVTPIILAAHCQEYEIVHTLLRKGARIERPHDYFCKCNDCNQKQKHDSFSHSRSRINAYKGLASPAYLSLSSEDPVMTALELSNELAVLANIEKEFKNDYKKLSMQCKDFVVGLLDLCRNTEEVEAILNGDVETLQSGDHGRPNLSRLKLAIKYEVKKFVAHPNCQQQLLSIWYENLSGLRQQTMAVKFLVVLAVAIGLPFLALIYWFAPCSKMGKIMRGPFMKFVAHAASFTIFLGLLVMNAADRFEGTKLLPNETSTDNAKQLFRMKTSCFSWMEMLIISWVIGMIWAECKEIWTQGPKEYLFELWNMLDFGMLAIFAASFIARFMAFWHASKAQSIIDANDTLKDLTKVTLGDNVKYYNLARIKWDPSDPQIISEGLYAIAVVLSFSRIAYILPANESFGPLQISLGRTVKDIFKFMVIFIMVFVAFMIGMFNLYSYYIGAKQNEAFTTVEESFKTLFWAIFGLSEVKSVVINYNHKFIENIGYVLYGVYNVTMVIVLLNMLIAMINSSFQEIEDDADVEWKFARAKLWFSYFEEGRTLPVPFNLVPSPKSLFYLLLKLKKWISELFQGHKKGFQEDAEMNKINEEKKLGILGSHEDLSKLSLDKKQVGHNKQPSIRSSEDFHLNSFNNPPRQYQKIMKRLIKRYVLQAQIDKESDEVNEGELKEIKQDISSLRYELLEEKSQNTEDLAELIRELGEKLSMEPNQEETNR
Text: (§1) To determine the effect of the P112Q mutation on TRPC6 function, we studied HEK 293 cells (human kidney cells) transfected with mutant (TRPC6^P112Q) or wild-type (WT) TRPC6 (14). The WT TRPC6 was cloned from a human kidney cDNA library. […] Diacylglycerol (DAG) is a potent activator of TRPC6 (15). We therefore measured the intracellular calcium concentration ([Ca^+2]i) using Fura fluorescence in HEK 293 cells expressing either the WT or TRPC6^P112Q after exposure to the DAG analogue OAG (1-oleoyl-2-acetyl-sn-glycerol). OAG perfusion increased late Ca^+2 transients in cells transfected with WT TRPC6 as expected (FIG. 3A and FIG. 7).
(§2) Angiotensin II acting through its AT1 receptor plays a critical role in the generation of proteinuria and progression of kidney injury in a number of kidney diseases including FSGS (16). AT1 receptors, coupled to heterotrimeric G nucleotide-binding proteins, activate phospholipase C-beta isoforms that hydrolyze phosphatidylinositol 4,5-bisphosphate (PIP2). This triggers production of inositol 1,4,5-trisphosphate (InsP3) and diacylglycerol (DAG) releases internal calcium stores and activates Ca^+2 entry, respectively (17). We examined whether the P112Q mutation would affect angiotensin II-dependent (i.e., receptor-operated) calcium signaling. HEK 293 cells were co-transfected with the AT1 angiotensin receptor (AT-YFP) and either WT TRPC6 or TRPC6^P112Q. [Ca^+2]i changes were measured after exposure to angiotensin II (FIG. 3B and FIG. 8); similar to the OAG experiments, the peak angiotensin II-stimulated [Ca^+2]i was higher in cells expressing the mutant protein compared with WT controls ([Ca^2+]i TRPC6^P112Q=640±66 nM vs. [Ca^2+]i WT TRPC6=357±46 nM; p<0.05). To establish that the P112Q mutation is not isolated to TRPC6 channels, we introduced the analogous mutation into the TRPC3 channel.
(§3) HEK 293 cells were plated on glass bottom plates at near confluence. After 24 hours, the cells were transfected with plasmids in the presence of lipofectamine 2000 (Invitrogen). Here 3 μg of TRPC6 plasmid (WT or mutant) and 1 μg of ATR-YFP plasmid were incubated for 4 hours in Optimem 2000 media (Gibco) and then changed to 10% FBS/DMEM media. For biotinylation experiments, 24 hours after transfection with TRPC6-V5 and TRPC6^P112Q-V5 constructs, cells were washed with ice cold PBS and incubated with sulfo-NHS-SS-Biotin (2 mg/ml) (Pierce) for 30-min at 4° C. After 3 washes with PBS with 10 mM glycine, cells were incubated with RIPA lysis buffer for 30-min at 4° C. Lysates were passed through a 20 G and then 25 G needle for 25 passes. Samples were then collected by centrifuging at 20K G for 15-min at 4° C. Supernatants were then incubated overnight with streptavidin agaraose beads (Pierce), washed 3 times and then heated to 37° C. […]

WT TRPC6 = molecular target: T2, WT TRPC6 (Homo sapiens, UniProt Q9Y210); assay: Fura-2 single cell imaging of divalent cations in HEK 293 cells transfected with WT TRPC6; assay type: cell-based
T2 construct: expressed in transfected cells; host or cells: HEK 293
T2 sequence (Q9Y210 1-931): T1 sequence (Q9Y210 1-931 P112Q) with Q112P
Text: as §1, §2, §3

Molecule | OAG-stimulated barium transients, 4340/380 ratio (TRPC6^P112Q; HEK293 cells transfected with TRPC6P112Q, Fura-2, barium as surrogate for calcium) | Peak intracellular calcium concentration [Ca2+]i after OAG perfusion (TRPC6^P112Q; HEK 293 cells transfected with TRPC6^P112Q, 100 μM OAG, Fura fluorescence) [nM] | Peak intracellular calcium concentration [Ca2+]i after OAG perfusion (WT TRPC6; HEK 293 cells transfected with WT TRPC6, 100 μM OAG, Fura fluorescence) [nM] | OAG-stimulated barium transients, ratio (WT TRPC6; HEK293 cells transfected with WT TRPC6, Fura-2, barium as surrogate for calcium) | Peak angiotensin II-stimulated [Ca2+]i (TRPC6^P112Q; HEK 293 cells co-transfected with AT1 receptor (AT-YFP) and TRPC6^P112Q, angiotensin II 1 μM) [nM] | Duration of angiotensin II-induced barium signal (TRPC6^P112Q; HEK 293 cells co-transfected with AT1 receptor and TRPC6^P112Q) [s] | Peak angiotensin II-stimulated [Ca2+]i (WT TRPC6; HEK 293 cells co-transfected with AT1 receptor (AT-YFP) and WT TRPC6, angiotensin II 1 μM) [nM] | Duration of angiotensin II-induced barium signal (WT TRPC6; HEK 293 cells co-transfected with AT1 receptor and WT TRPC6) [s]
CCCCCCCC/C=C\CCCCCCCC(=O)OC[C@H](CO)OC(C)=O [OAG, 1-oleoyl-2-acetyl-sn-glycerol] | 1.30±0.7 | 181 ± 25 | 106 ± 15 | 0.49±0.18 |  |  |  | 
angiotensin II: ligand acting through its AT1 receptor, used to stimulate receptor-operated calcium signaling (DRVYIHPF; Angiotensin-2; UniProt P01019 25-32, looked up) |  |  |  |  | 640 ± 66 | 1054 ± 282 | 357 ± 46 | 271 ± 121
